Non-standard residues stand in square brackets, D forms with d. Residues, ends and D or L forms follow the SMILES beside them. No end group written: not given here. pS = N[C@@H](COP(=O)(O)O)C(=O)O
Experiments:
[1] = test system: ovariectomized female Sprague Dawley rats; test: Serum and urine chemistry in the ovariectomized rat osteoporosis model; type: in vivo; conditions: OVX rats; for Serum Ca^2+ / Urine Ca^2+ / Serum AP (serum alkaline phosphatase) / Serum Pi (serum inorganic phosphate): 200-208 μg/kg peptide oral daily for 84 days; for Serum Ca^2+ / Serum AP (serum alkaline phosphatase) / Serum Pi (serum inorganic phosphate): terminal sample Day 84
Source text: Ovariectomized rats were chosen for the efficacy study of a series of peptides. After a six (6) day quarantine/acclimation period, forty (40) ovariectomized female Sprague Dawley outbred (Crl:CD®IGS BR) rats were randomly allocated into five experimental groups of eight animals each. A sixth group was composed of eight sham-operated Sprague Dawley rats. The experimental design consisted of four test-article groups and two vehicle control groups (one ovariectomized and one sham-operated). Each rat received a single daily oral dose for 84 days of either 0.9% Sodium Chloride for Injection (controls) or 200-208 μg/kg of peptide as specified in Table 1. Doses were based upon a target dose of 50 μg/animal/day and group mean body weights determined at study initiation (Day 0). “Sham” indicates sham-operated rats; and “OVX” indicates ovariectomized rats. The dose range of 200-208 μg/kg/day employed in the study represents the target dose (50 μg/animal/day) in animals weighing […] at study initiation. The test samples for groups 1, 2, 3, and 4 were dissolved in 0.9% Sodium Chloride for injection and administered at once. All dosing was accomplished by oral gavage (dose volume 1.0-1.5 mL, adjusted weekly for bodyweight gain). Certified Rodent Diet #5002 (Purina Mills, Inc., St. Louis, Mo.) was provided during the quarantine/acclimation period and throughout the study. Clinical signs were observed once daily throughout the quarantine/acclimation and treatment periods. Individual body weights were recorded at the initiation of the dosing, once weekly throughout the treatment phase, and at necropsy. Animals were sacrificed approximately 24 hours after the administration of the final dose (Day 84). Terminal whole blood samples were collected from each animal for serum chemistry (i.e. measurement of serum calcium and phosphorus) evaluations via terminal cardiocentesis. Femurs were submitted for post-mortem bone mechanical strength and composition analysis.

[2] = test system: ovariectomized female Sprague Dawley rats; test: Three-point bending mechanical strength test of the femur in the ovariectomized rat osteoporosis model; type: in vivo; conditions: right femur, Day 84, vs. Group 5
Source text: Ovariectomized rats were chosen for the efficacy study of a series of peptides. After a six (6) day quarantine/acclimation period, forty (40) ovariectomized female Sprague Dawley outbred (Crl:CD®IGS BR) rats were randomly allocated into five experimental groups of eight animals each. A sixth group was composed of eight sham-operated Sprague Dawley rats. The experimental design consisted of four test-article groups and two vehicle control groups (one ovariectomized and one sham-operated). Each rat received a single daily oral dose for 84 days of either 0.9% Sodium Chloride for Injection (controls) or 200-208 μg/kg of peptide as specified in Table 1. Doses were based upon a target dose of 50 μg/animal/day and group mean body weights determined at study initiation (Day 0). “Sham” indicates sham-operated rats; and “OVX” indicates ovariectomized rats. The dose range of 200-208 μg/kg/day employed in the study represents the target dose (50 μg/animal/day) in animals weighing […] at study initiation. The test samples for groups 1, 2, 3, and 4 were dissolved in 0.9% Sodium Chloride for injection and administered at once. All dosing was accomplished by oral gavage (dose volume 1.0-1.5 mL, adjusted weekly for bodyweight gain). Certified Rodent Diet #5002 (Purina Mills, Inc., St. Louis, Mo.) was provided during the quarantine/acclimation period and throughout the study. Clinical signs were observed once daily throughout the quarantine/acclimation and treatment periods. Individual body weights were recorded at the initiation of the dosing, once weekly throughout the treatment phase, and at necropsy. Animals were sacrificed approximately 24 hours after the administration of the final dose (Day 84). Terminal whole blood samples were collected from each animal for serum chemistry (i.e. measurement of serum calcium and phosphorus) evaluations via terminal cardiocentesis. Femurs were submitted for post-mortem bone mechanical strength and composition analysis. The right femur of each animal was reserved for bone mechanical strength evaluation (i.e. three-point bending analysis). Femurs were placed on an apparatus in which two isolated points of the long bone were supported. Weight load was applied at the center of two supporting points toward the direction in which the bone is bent. […] Femurs were positioned with the anterior side toward the center load, and the posterior side toward the two supports. The loading was done in an Instron Model #1122 materials testing machine (Canton, Mass.). Testing was conducted with a displacement of 2.0 mm/minute. Load and displacement were recorded at 0.002 mm displacement intervals. Experiments were controlled using a computer-based data acquisition system running ASYST Scientific Software (Keithley-Metrabyte; Taunton, Mass.). The following data were generated: Maximum Load (in Newton, N); Initial Stiffness (in N/mm); Energy at Maximum (in Nmm) The value of the load was plotted against the deflection generating the load-deflection curve. Two points in the initial linear portion of the load-deflection curve were chosen by the operator at the time of testing. A line was constructed through the chosen points, the slope of which is the initial stiffness. The maximum load is the largest value of the load recorded during the flexural test. The energy at maximum is the area under the load-deflection curve up to the maximum load point.

Row | Compound | Serum Ca^2+ [1] [mg/dL] | Energy at maximum compared with saline-treated ovariectomized controls (FIG. 6) [2] | Initial bone stiffness compared with saline-treated ovariectomized controls (FIG. 4) [2] | Maximum load compared with saline-treated ovariectomized controls (FIG. 5) [2] | Urine Ca^2+ [1] [mg/dL] | Serum AP (serum alkaline phosphatase) [1] [U/L] | Serum Pi (serum inorganic phosphate) [1] [mg/dL] | Serum phosphorus concentration compared with controls (FIG. 1) ([1]; oral daily for 84 days, Day 84, vs saline-treated OVX controls and sham-operated controls)
1 | N[C@@H](COP(=O)(O)O)C(=O)NCC(=O)N[C@@H](COP(=O)(O)O)C(=O)NCC(=O)N[C@@H](COP(=O)(O)O)C(=O)NCC(=O)N[C@@H](COP(=O)(O)O)C(=O)NCC(=O)N[C@@H](COP(=O)(O)O)C(=O)NCC(=O)N[C@@H](COP(=O)(O)O)C(=O)NCC(=O)N[C@@H](COP(=O)(O)O)C(=O)NCC(=O)O [(Pse-Gly)7, Pse-Gly-Pse-Gly-Pse-Gly-Pse-Gly-Pse-Gly-Pse-Gly-Pse-Gly] (H-[pS]G[pS]G[pS]G[pS]G[pS]G[pS]G[pS]G-OH) | 11.0 ± 0.5 |  |  |  |  |  |  | 
2 | Ser-Gly-Ser-Gly-Pse-Gly-Pse-Gly-Pse-Gly-Pse-Gly-Pse-Gly (SGSG[pS]G[pS]G[pS]G[pS]G[pS]G) [(Ser-Gly)2(Pse-Gly)5, Linear peptide, Pse = O-phosphoserine] |  | statistically significant increase | statistically significant increase | statistically significant increase | 29.5 ± 20.0 | 121 ± 30 | 9.2 ± 1.3 | 
3 | Ser-Gly-Ser-Gly-Ser-Gly-Ser-Gly-Ser-Gly-Pse-Gly-Pse-Gly (SGSGSGSGSG[pS]G[pS]G) [(Ser-Gly)5(Pse-Gly)2, Linear peptide, Pse = O-phosphoserine] |  | statistically significant increase | statistically significant increase | statistically significant increase | 26.6 ± 14.1 | 118 ± 18 | 7.9 ± 0.9 | equivalent to or even lower than sham-operated controls
4 | N[C@@H](CO)C(=O)NCC(=O)N[C@@H](CO)C(=O)NCC(=O)N[C@@H](CO)C(=O)NCC(=O)N[C@@H](CO)C(=O)NCC(=O)N[C@@H](CO)C(=O)NCC(=O)N[C@@H](CO)C(=O)NCC(=O)N[C@@H](CO)C(=O)NCC(=O)O [(Ser-Gly)7, Ser-Gly-Ser-Gly-Ser-Gly-Ser-Gly-Ser-Gly-Ser-Gly-Ser-Gly] (H-SGSGSGSGSGSGSG-OH) | 10.8 ± 0.6 |  |  |  | 26.7 ± 22.9 | 134 ± 53 | 8.8 ± 1.0 | 

Source: patent publication US20050065068A1, “Methods and compositions for reducing serum phosphate levels” (priority 1999, published 2005)
